From PMC11091220, “Metabolism-driven in vitro/in vivo disconnect of an oral ERɑ VHL-PROTAC” (Communications Biology, 2024)
Several values for one entry are separate records, joined by “and”; a condition that tells them apart may be missing. Equal values may be shown once. Read-outs that look alike come from different tables or passages of the source.

Assays:
[1] = target: T1, recombinant human ERα ligand binding domain (LBD) (Homo sapiens, UniProt P03372); assay: ERα binding assay (LanthaScreen TR-FRET competition)
T1 construct: purchased Invitrogen PV4543
T1 sequence (P03372 311-547 limits assumed): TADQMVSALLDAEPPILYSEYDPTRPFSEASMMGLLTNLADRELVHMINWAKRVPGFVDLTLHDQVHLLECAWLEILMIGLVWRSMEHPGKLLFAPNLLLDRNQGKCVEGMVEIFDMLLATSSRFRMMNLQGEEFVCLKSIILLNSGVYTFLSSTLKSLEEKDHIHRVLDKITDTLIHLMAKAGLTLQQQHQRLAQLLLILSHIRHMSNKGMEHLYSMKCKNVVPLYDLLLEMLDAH
Experimental: The ability of compounds to bind to isolated ERα Ligand binding domain (ERα–LBD (GST)) was assessed in competition assays using a LanthaScreenTM Time-Resolved Fluorescence Resonance Energy Transfer (TR-FRET) detection end-point. For the LanthaScreen TR-FRET endpoint, a suitable fluorophore (Fluormone ES2, Product code P2645) and recombinant human ERα ligand binding domain (LBD) (product code PV4543) were purchased from Invitrogen and used to measure compound binding. A terbium-labelled anti-GST antibody (Product code PV3551) is used to indirectly label the receptor by binding to its GST tag, and competitive binding is detected by a test compounds’ ability to displace the fluorescent ligand resulting in a loss of TR-FRET signal between the Tb-anti-GST antibody and the tracer. The assay was performed with all reagent additions carried out using the Beckman Coulter BioRAPTR FRD microfluidic workstation: […]

ERα = target: T2, ERα (Homo sapiens, UniProt P03372); assay: ERα high throughput imaging degradation assay in MCF7 cells; type: cell-based; conditions: for DC50: MCF7 cells, 20 to 24 hours; for Dmax: MCF7; for Degradation vs fulvestrant: listed as Cmp 7
T2 construct: endogenous in cells; host or cells: MCF7 (also MCF7 engineered to express Cas9)
T2 sequence (P03372 1-595): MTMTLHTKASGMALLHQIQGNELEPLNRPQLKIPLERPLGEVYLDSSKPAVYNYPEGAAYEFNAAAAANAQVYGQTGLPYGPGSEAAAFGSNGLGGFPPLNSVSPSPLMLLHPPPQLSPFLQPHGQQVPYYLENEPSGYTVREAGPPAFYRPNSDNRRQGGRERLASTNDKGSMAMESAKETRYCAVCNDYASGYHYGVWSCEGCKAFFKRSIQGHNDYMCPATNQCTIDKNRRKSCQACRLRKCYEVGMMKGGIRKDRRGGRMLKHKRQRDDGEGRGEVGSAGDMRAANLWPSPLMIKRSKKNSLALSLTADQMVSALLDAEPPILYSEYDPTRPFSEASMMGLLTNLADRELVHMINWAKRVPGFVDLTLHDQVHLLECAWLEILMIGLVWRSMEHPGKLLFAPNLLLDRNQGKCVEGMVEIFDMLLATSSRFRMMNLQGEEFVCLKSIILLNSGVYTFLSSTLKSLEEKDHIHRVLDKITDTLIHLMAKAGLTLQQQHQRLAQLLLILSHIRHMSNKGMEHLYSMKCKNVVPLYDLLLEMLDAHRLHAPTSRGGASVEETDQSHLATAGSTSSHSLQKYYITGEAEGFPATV
Experimental: Cells were fixed, permeabilised and stained with anti-ERα (rabbit clone SP1, Thermo) and anti-PR (mouse clone PgR 636, Dako) antibodies followed by secondary AlexaFluor 594 goat anti-rabbit and AlexaFluor 488 goat anti-mouse IgG antibodies. Imaging was using the Thermo Cellinsight scanner and average fluorescence intensity was analysed using Genedata.

[2] = Mouse hepatocyte intrinsic clearance; type: in vitro ADME; conditions: for hepatocyte CLint at 1 µM: male, CD-1, mouse, hepatocytes
Experimental: Livers from CD-1 male mice weighing 30-35 g were digested and perfused using D-Hanks solution containing EDTA or collagenase. Once digested the liver was transferred to a petri dish and the hepatocytes were prepared by washing and centrifuging with a Leibovitz-15 medium containing 50% isotonic percoll. A cell viability >80% was required to progress the cells. The test compound was prepared to 10 mM in 100% DMSO and further diluted to 100 μM in 100% acetonitrile. The hepatocyte incubations were prepared in Leibovitz’s L-15 Medium pH 7.4 containing 1 million hepatocytes/mL and a final compound concentration of 1 µM. Cell viability was determined using a Cellometer Vision and >80% cell viability was required to proceed with the compound incubation. The compound/cell solution (250 µL) was incubated for 2 h at 37 °C and shaken at 900 rpm on an Eppendorf Thermomixer Comfort plate shaker. Samples (20 µL) were taken at 0.5, 5, 15, 30, 45, 60, 80, 100, and 120 min and quenched with 100 μL of 100% ice-cold acetonitrile. Samples were shaken at 800 rpm for 2 min and centrifuged at 4000 rpm for 20 min at 4 °C to pellet precipitated protein. The supernatant fraction was diluted 1:5 with deionised water, shaken at 1000 rpm for 2 min, and further diluted 1:1 with deionised water. Samples were analysed by LC-MS/MS[17].

[3] = target: ESR1-Nanoluciferase fusion protein (Homo sapiens, UniProt P03372); assay: ERα nanoluciferase degradation assay; type: cell-based; conditions: for DC50: 24 hours, read-out: ERα nano-luciferase degradation DC50; for IC50: Table 1 source data, mean, read-out: ERa nanocluciferase degradation DC50 (nM), Mean IC50; for Dmax: read-out: ERα nano-luciferase Dmax
ESR1-Nanoluciferase fusion protein, sequence (P40337 whole entry, one chain of several, the tested form may be a part): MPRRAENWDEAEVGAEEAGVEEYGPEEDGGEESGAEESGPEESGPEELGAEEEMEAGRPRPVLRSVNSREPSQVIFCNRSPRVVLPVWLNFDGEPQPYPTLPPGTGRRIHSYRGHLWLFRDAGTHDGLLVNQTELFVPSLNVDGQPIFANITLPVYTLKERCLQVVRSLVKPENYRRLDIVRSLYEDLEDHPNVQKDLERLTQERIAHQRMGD
Experimental: MCF7 pTRIPZ Cas9 cells stably transfected with pSMPNeo dual Luc ESR1 vector (containing ESR1-Nanoluciferase fusion protein/reporter and a Firefly luciferase reporter) were seeded into T175 flasks and incubated for 48 hours in RPMI 1640 media containing 10% (v/v) foetal bovine serum (FBS) and 2 mM L-Glutamine. The cells were then seeded at 20000 cells/well into 384-well plates containing compounds at concentrations ranging from 3.125 µM to 15.9 pM. Following 24 hours incubation (37 °C, 5% CO2), media was removed and ONE-Glow^TM EX luciferase reagent (Promega) was added to each well. Firefly luminescence was measured after 5 minutes using an Envision (PerkinElmer). NanoDLR^TM Stop and Glo® reagent (Promega) was added and incubated for ten minutes (room temperature), before measuring Nano luminescence using the Envision. Wells containing vehicle or 3 µM Fulvestrant were used to normalise data, and degradation of ESR1-Nanoluciferase was analysed using Genedata Screener.

[4] = Table S4 source data, mean, read-out: ERa binding, Mean
[5] = mean ± s.d., read-out: ERα binding IC50
[6] = 0% vehicle control, 100% fulvestrant, read-out: ERα imaging Dmax
[7] = pH 7.4, read-out: muHeps (mouse hepatocytes) clearance
[8] = Table S4 source data, read-out: ERa degradation, Dmax (%)
[9] = MCF7, read-out: ERα imaging Dmax, 0% vehicle control, 100% fulvestrant

Row | Compound | DC50 (ERα) | IC50 [1, 5] | hepatocyte CLint at 1 µM [2, 7] | Dmax (ERα; [8]) | also measured
1 | Cc1ncsc1-c1ccc(CNC(=O)[C@@H]2C[C@@H](O)CN2C(=O)[C@@H](NC(=O)COCCOCCCCOc2cc(F)c([C@@H]3c4[nH]c5ccccc5c4C[C@@H](C)N3CC(C)(C)F)c(F)c2)C(C)(C)C)cc1 [Compound 9] | 0.5 ± 0.1 nM | – | – | – | IC50 [1, 4]: 0.6 nM; ERa degradation, Dmax (%) (ERα; Table S4 source data): 100%; muHeps, Mean Clint (mL/min/10^6 cells) ([2]; mouse hepatocytes, Table S4 source data): 14 mL/min/10^6 cells
2 | Cc1ncsc1-c1ccc(CNC(=O)[C@@H]2C[C@@H](O)CN2C(=O)[C@@H](NC(=O)COCCOc2cc(F)c([C@@H]3c4[nH]c5ccccc5c4C[C@@H](C)N3CC(C)(C)F)c(F)c2)C(C)(C)C)cc1 [Compound 1] | 0.6 ± 1.2 nM | 1.3 nM | 22 µL/min/1e6 cells | – | Dmax (ERα; [6]): 89 ± 1%
3 | Cc1ncsc1-c1ccc(CNC(=O)[C@@H]2C[C@@H](O)CN2C(=O)[C@@H](NC(=O)COCCCOCCOc2cc(F)c([C@@H]3c4[nH]c5ccccc5c4C[C@@H](C)N3CC(C)(C)F)c(F)c2)C(C)(C)C)cc1 [Compound 10] | 0.4 nM | – | 20 ± 1 µL/min/1e6 cells | 100% | IC50 [1, 4]: 0.5 nM; hepatocyte CLint at 1 µM ([2]; pH 7.4, mouse hepatocytes, Table S4 source data, read-out: muHeps, Mean Clint (mL/min/10^6 cells)): 19 µL/min/1e6 cells
4 | Cc1ncsc1-c1ccc(CNC(=O)[C@@H]2C[C@@H](O)CN2C(=O)[C@@H](NC(=O)COCCOCCOCCOCCOc2cc(F)c([C@@H]3c4[nH]c5ccccc5c4C[C@@H](C)N3CC(C)(C)F)c(F)c2)C(C)(C)C)cc1 [Compound 4] | 3.2 nM | 6.3 nM | 41 µL/min/1e6 cells | – | Dmax (ERα; [6]): 101%
5 | Cc1ncsc1-c1ccc(CNC(=O)[C@@H]2C[C@H](O)CN2C(=O)[C@@H](NC(=O)COCCCOCCCOc2cc(F)c([C@@H]3c4[nH]c5ccccc5c4C[C@@H](C)N3CC(C)(C)F)c(F)c2)C(C)(C)C)cc1 [Compound 7] | 3.1 nM | 1 nM | – | – | Degradation vs fulvestrant (ERα; Log M -6.5, MCF7, 24 h): 64.0% and 68.3%; Degradation vs fulvestrant (ERα; Log M -7.0): 68.3% and 71.6% and 59.3% and 58.8%; Degradation vs fulvestrant (ERα; Log M -7.5): 65.0% and 59.3% and 59.1% and 57.9%; Degradation vs fulvestrant (ERα; Log M -7.9): 65.6% and 48.2% and 57.7% and 56.0%; Degradation vs fulvestrant (ERα; Log M -8.5): 49.3% and 36.8% and 53.9% and 47.6%; Degradation vs fulvestrant (ERα; Log M -9.0): 32.2% and 32.7% and 45.9% and 42.5%; Dmax (ERα; [9]): ~65%; DC50 [3]: > 3000 nM; IC50 [3]: > 3000 nM
6 | Cc1ncsc1-c1ccc(CNC(=O)[C@@H]2C[C@@H](O)CN2C(=O)[C@@H](NC(=O)COCCOCCOc2cc(F)c([C@@H]3c4[nH]c5ccccc5c4C[C@@H](C)N3CC(C)(C)F)c(F)c2)C(C)(C)C)cc1 [Compound 2] | 0.8 nM | 0.6 nM | 40 µL/min/1e6 cells | – | Dmax (ERα; [6]): 94%
7 | Cc1ncsc1-c1ccc(CNC(=O)[C@@H]2C[C@@H](O)CN2C(=O)[C@@H](NC(=O)C2(OCCCOCCCOc3cc(F)c([C@@H]4c5[nH]c6ccccc6c5C[C@@H](C)N4CC(C)(C)F)c(F)c3)CC2)C(C)(C)C)cc1 [Compound 13] | 2 nM | – | – | 96% | IC50 [1, 4]: 1 nM
8 | Cc1ncsc1-c1ccc(CNC(=O)[C@@H]2C[C@@H](O)CN2C(=O)[C@@H](NC(=O)COCCCc2cccc(COc3cc(F)c([C@@H]4c5[nH]c6ccccc6c5C[C@@H](C)N4CC(C)(C)F)c(F)c3)c2)C(C)(C)C)cc1 [Compound 14] | 4.9 nM | – | – | 103% | –
9 | Cc1ncsc1-c1ccc(CNC(=O)[C@@H]2C[C@@H](O)CN2C(=O)[C@@H](NC(=O)COCc2cccc(CCCOc3cc(F)c([C@@H]4c5[nH]c6ccccc6c5C[C@@H](C)N4CC(C)(C)F)c(F)c3)c2)C(C)(C)C)cc1 [Compound 15] | 14 nM | – | – | 106% | –
10 | Cc1ncsc1-c1ccc(CNC(=O)[C@@H]2C[C@@H](O)CN2C(=O)[C@@H](NC(=O)COCCOCCOCCOc2cc(F)c([C@@H]3c4[nH]c5ccccc5c4C[C@@H](C)N3CC(C)(C)F)c(F)c2)C(C)(C)C)cc1 [Compound 3] | 0.3 ± 0.1 nM | 0.3 nM | 31 µL/min/1e6 cells | – | Dmax (ERα; [9]): 99 ± 2%; DC50 [3]: 3.1 nM; IC50 [3]: 3.1 nM; Dmax [3]: 124%
11 | Cc1ncsc1-c1ccc(CNC(=O)[C@@H]2C[C@@H](O)CN2C(=O)[C@@H](NC(=O)COCCN2CCN(CCOc3cc(F)c([C@@H]4c5[nH]c6ccccc6c5C[C@@H](C)N4CC(C)(C)F)c(F)c3)CC2)C(C)(C)C)cc1 [Compound 6] | 0.5 ± 0.4 nM | 1.3 nM | 11 µL/min/1e6 cells | – | Dmax (ERα; [9]): 100 ± 0.5%; DC50 [3]: 46 ± 27 nM; IC50 [3]: 46 nM; Dmax [3]: 88 ± 1%
